Blank lines part the entries; values can stand above or below the molecule they belong to. Where a SMILES comes first, the peptide text is derived from it. Where no end group is shown, it is not given here. The star is where a group is joined. DTPA = O=C(O)CN(CCN(CC(=O)O)CC(=O)O)CCN(CC(=O)O)CC(=O)*
Columns and labels:
[1] = test system: monoclonal antibody 7E11-C5; experiment: ELISA: biotinylated monoclonal antibody 7E11-C5 binding to immobilized mimetope peptide 7E11-9.5; set-up: species or system murine; conditions: wells coated with 5 μg/mL mimetope; antibody serially diluted from 29 μg/mL; FIG. 2
Protocol: First the mimetope peptide 7 μl-9.5 was tested for its ability to bind to the monoclonal antibody 7E11-C5. Ninety-six well plates (Immunlon 4, Dynatech, Alexandria, Va.) were coated with 50 μL of a 5 μg/mL solution of the mimetope peptide 7 μl-9.5 and incubated overnight at room temperature. Following incubation, the wells were washed 4 times with 1% BSA in PBS. Biotinylated monoclonal antibody 7E11-C5 was serially diluted with PBS beginning with a concentration of 29 μg/mL and various amounts of the monoclonal antibody were added to the wells that had been coated with the mimetope peptide. After incubating for 1 hour at room temperature, the wells were washed four times with 1% BSA in PBS and 2 times with PBS. Then, 100 AL of a 1:2000 dilution of Extravidin-Alkaline Phosphatase (4,250 units/mL) (Sigma, St. Louis, Mo.) in PBS was added to each well. After an hour, the plate was again washed 4 times with PBS and 100 μL of a 1 mg/mL solution of the enzyme substrate p-nitrophenyl phosphate was added to each well. Color was allowed to develop for 15 minutes to 1 hour and absorbance was read at 405 nm.

[2] = biological target: T1, native 7E11-C5 antigen in LNCaP lysates (Homo sapiens, UniProt Q04609); experiment: Sandwich assay: capture of antigen from LNCaP cell lysate; assay type: binding; conditions: detection with biotinylated 7E11-C5, FIG. 6
T1 construct: endogenous in cells; host or cells: LNCaP cell lysate
T1 sequence (Q04609 whole entry): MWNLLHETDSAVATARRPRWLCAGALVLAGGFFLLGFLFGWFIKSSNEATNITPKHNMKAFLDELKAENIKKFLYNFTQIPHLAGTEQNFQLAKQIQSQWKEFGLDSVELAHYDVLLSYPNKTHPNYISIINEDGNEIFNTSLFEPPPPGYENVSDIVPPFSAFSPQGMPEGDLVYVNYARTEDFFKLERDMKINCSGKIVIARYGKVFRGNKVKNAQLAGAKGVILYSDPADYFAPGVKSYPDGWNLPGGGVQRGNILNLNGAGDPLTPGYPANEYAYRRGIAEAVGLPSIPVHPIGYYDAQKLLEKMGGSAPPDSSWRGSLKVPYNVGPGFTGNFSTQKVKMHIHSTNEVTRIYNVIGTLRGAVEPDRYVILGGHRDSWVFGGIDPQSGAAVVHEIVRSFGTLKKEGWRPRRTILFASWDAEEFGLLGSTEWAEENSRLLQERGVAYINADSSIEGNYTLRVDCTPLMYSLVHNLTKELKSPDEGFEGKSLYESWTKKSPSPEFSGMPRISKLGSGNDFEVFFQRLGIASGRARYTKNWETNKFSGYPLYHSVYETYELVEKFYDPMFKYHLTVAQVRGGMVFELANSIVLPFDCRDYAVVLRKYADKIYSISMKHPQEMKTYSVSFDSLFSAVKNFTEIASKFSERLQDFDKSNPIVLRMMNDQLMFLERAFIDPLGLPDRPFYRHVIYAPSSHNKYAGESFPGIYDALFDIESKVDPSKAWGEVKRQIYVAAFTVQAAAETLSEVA
Protocol: A sandwich assay using the LNCaP antigen was performed. The wells of a microtiter plate were coated with either monoclonal antibody 7E11-C5, the clone 14 7E11-C5 abtide, or, as a negative control, BSA. Coating and washing was as for-the assay described in Section 6.1.2.2. One hundred microliters of a lysate of LNCaP cells was added to the wells. The LNCaP lysate was prepared as described in PCT publication WO 94/18318, dated Aug. 18, 1994. Following capture of the lysate on the plate, 100 μL of a 5 μg/mL solution of biotinylated 7E11-CS monoclonal antibody was added to each well. Following incubation and washing as in Section 6.1.2.2, a 1:2000 dilution of Extravidin-Alkaline Phosphatase (4,250 units/mL) (Sigma, St. Louis, Mo.) in PBS was added to each well and incubated for 1 hour at room temperature. Following incubation, the wells were washed four times with 1% BSA in PBS and then twice in PBS. One hundred microliters of a 1 mg/mL solution of p-nitrophenyl phosphate in diethanol amine (DEA) buffer (both from Kirkegaard & Perry Laboratories, Gaithersburg, Md.) was then added and, after incubation at room temperature for 15-30 minutes, the absorbance of the solutions in the wells was read at 405 nm.
This was a surprising discovery and would not have been predicted by those skilled in the art. […]

[3] = test system: biotinylated 7E11-9.5 mimetope peptide; experiment: Dot blot: spotted 7E11-C5 abtides probed with biotinylated mimetope peptide; assay type: binding; conditions: 1 μL of 1 mg/mL abtide spotted on nitrocellulose; 0.1 mg/mL mimetope; FIG. 4
Protocol: In some cases, these abtides were used in a dot blot experiment. In those cases, 1 μL of a 1 mg/mL solution of the 38-residue abtides was spotted onto nitrocellulose (0.2 μm or 0.45 μm, Schleicher & Schuell, Keene, NH) strips or circles. After drying (about 1/2 hour), the nitrocellulose was blocked for 1 hour in a solution of 1% BSA in PBS. The nitrocellulose was then allowed to incubate in approximately 5 mL of a solution of 0.1 mg/mL of a biotinylated 7E11-9.5 mimetope peptide (biotin-LYANPGMYSRLHSPA). This mimetope peptide was one of those described in Section 6.1.1 above that were synthesized based upon the nine peptides that were identified in the screening of Section 6.1.1 above. After an hour, the nitrocellulose was washed approximately 5 times with a solution of 1% BSA in PBS. A 1:2000 dilution of Extravidin-Alkaline Phosphatase (4,250 units/mL) (Sigma, St. Louis, Mo.) in PBS was then added and allowed to incubate for 1 hour, after which the nitrocellulose was again washed extensively. Finally, a solution of 5-bromo-4-chloro-3-indolyl phosphate (0.15 mg/mL) and nitro blue tetrazolium (0.3 mg/mL) (Sigma, St Louis, Mo.) (BCIP/NBT) was added as an enzyme substrate. Color was allowed to develop […].
In FIG. 4, the 7E11-C5 abtides known as clone 14, clone 17, clone 15, clone 16, and clone 13 were tested for their ability to bind the biotinylated 7E11-9.5 mimetope peptide. Also tested, as a positive control, was the monoclonal antibody 7E11-C5. 7E11-C5 was spotted onto the region marked 351 in FIG. 4.

[4] = test system: human prostate carcinoma LNCaP xenograft tumors; experiment: in vivo; set-up: species or system SCID mice; conditions: mouse, iv
Protocol: Male SCID mice (C.B-17/Icr Tac—SCID mice) were purchased from Fox Chase (Philadelphia, Pa.) or. Taconic Farms (Germantown, N.Y.), were housed in sterilized cages with filter bonnets, and were given autoclaved laboratory rodent chow (Purina, St. Louis, Mo.), and filtered tap water ad libitum.
1×10^7 cells of the human prostate tumor line LNCaP (Horoszewicz et al., 1987, Anticancer Res. 7:927-936) were injected subcutaneously (s.c.) into the left rear flank of the mice. The cells were growing in exponential phase before harvesting and had been resuspended in 0.2 mL of sterile saline. Tumors were grown in the mice for 2-3 months before abtides were injected into the mice.
For biodistribution studies, abtides were modified at their amino termini with the chelator diethylene-triamine-pentaacetic acid anhydride (DTPA-A) (Sigma, St. Louis, Mo.). Approximately 2 mg of each abtide was initially dissolved in an appropriate volume of 0.1% acetic acid and then 1 mL of 0.1 M sodium bicarbonate, pH 8.0, was added. Two mg of DTPA-A was suspended in 100 AL of dimethylsulfoxide (DMSO), and 10 μL of the abtide solution added to this DTPA-A suspension. […]
In one experiment, abtide clone 14-DPTA-^111In (see Table 2) was injected intravenously (i.v.) into two groups of mice bearing measurable LNCaP xenografts. […] Thus, the total injected dose of radioactivity was about 120-140×10^6 cpm.
The first group of mice was sacrificed 2 hours after injection of the abtide and tissues were dissected for analysis. […] Dissected tissues were weighed and the amount of ^111In in them was determined by gamma counting. The cpm per gram of each tissue was calculated by dividing the cpm of ^111In found in the tissue by the weight in grams of the tissue. […]
In another experiment, abtide clone 17-DPTA-^111In (see Table 2) was injected intravenously into four SCID mice bearing measurable LNCaP xenografts. […] Thus, the total injected dose of radioactivity was about 100-110×10^6 cpm. […]

PEM peptide = biological target: T2, PEM peptide (human); experiment: phage panning on PEM peptide, D38 library, eluted with excess PEM peptide
T2 peptide: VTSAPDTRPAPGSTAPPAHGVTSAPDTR
Protocol: A peptide comprising this sequence was synthesized and used to isolate abtides from TSAR peptide libraries by methods analogous to those described above. In these experiments, the specific TSAR libraries used were R26, D38 and DC43. See FIGS. 10-12 for description of these libraries. Phage bound to PEM were eluted by either standard acid elution methods, stringent acid elution methods where phage were incubated with the PEM peptide for only 10 minutes prior to washing and elution, or were eluted using excess PEM peptide. Phage from each library were isolated that express peptides capable of binding to PEM.

binding of biotinylated 7E11-9.5 mimetope peptide in dot blot [3]: bound the mimetope
Molecule: GIINANDPLPFWFMSPYTPGPAPIDINASRALVSNESG [clone 14]
recognition (capture) of native 7E11-C5 antigen [2]: capable of recognizing the native 7E11-C5 antigen in LNCaP lysates

binding of biotinylated 7E11-9.5 mimetope peptide in dot blot [3]: bound the mimetope
Molecule: DLSRNLDFGRFLLYNAYVPGFTPTFISLTAEHLSSPKG [clone 17]

binding result (PEM peptide): binds
B1: MP-30 (peptide)
peptide: GRGSDMREHWPWSMPLILDQHANDPSPRAQSHYYSHPF
notes: eluted with excess PEM peptide

The next lines start with the molecule.

Molecule: LYANPGMYSRLHSPA (not fully specified (N-terminus, C-terminus)) [7E11-9.5]
binding of monoclonal antibody 7E11-C5 to mimetope (absorbance at 405 nm) [1]: binds to the synthesized mimetope 7E11-9.5 in a concentration dependent manner

Molecule: CGRAYCLSGNYNIFGALFPGVSTPYADVGHDDAQSWRR [clone 15]
binding of biotinylated 7E11-9.5 mimetope peptide in dot blot [3]: bound the mimetope

Molecule: CC[C@H](C)[C@H](NC(=O)[C@H](Cc1ccccc1)NC(=O)[C@@H](NC(=O)[C@@H]1CCCN1C(=O)[C@@H](NC(=O)[C@H](Cc1ccccc1)NC(=O)CNC(=O)[C@@H]1CCCN1C(=O)[C@@H](NC(=O)[C@H](Cc1ccc(O)cc1)NC(=O)[C@H](C)NC(=O)[C@H](CC(N)=O)NC(=O)[C@H](Cc1ccc(O)cc1)NC(=O)[C@H](CC(C)C)NC(=O)[C@H](CC(C)C)NC(=O)[C@H](Cc1ccccc1)NC(=O)[C@H](CCCNC(=N)N)NC(=O)CNC(=O)[C@H](Cc1ccccc1)NC(=O)[C@H](CC(=O)O)NC(=O)[C@H](CC(C)C)NC(=O)[C@H](CC(N)=O)NC(=O)[C@H](CCCNC(=N)N)NC(=O)[C@H](CO)NC(=O)[C@H](CC(C)C)NC(=O)[C@H](CC(=O)O)NC(=O)CN(CCN(CCN(CC(=O)O)CC(=O)O)CC(=O)O)CC(=O)O)C(C)C)[C@@H](C)O)[C@@H](C)O)C(=O)N[C@@H](CO)C(=O)N[C@@H](CC(C)C)C(=O)N[C@H](C(=O)N[C@@H](C)C(=O)N[C@@H](CCC(=O)O)C(=O)N[C@@H](Cc1c[nH]cn1)C(=O)N[C@@H](CC(C)C)C(=O)N[C@@H](CO)C(=O)N[C@@H](CO)C(=O)N1CCC[C@H]1C(=O)N[C@@H](CCCCN)C(=O)NCC(N)=O)[C@@H](C)O [abtide clone 17-DPTA-^111In, metal not drawn] ({DTPA}-DLSRNLDFGRFLLYNAYVPGFTPTFISLTAEHLSSPKG-NH2)
localization to LNCaP xenograft tumors [4]: localized to LNCaP xenograft tumors

B2: MP-20 (peptide)
peptide: IDWNWLERGQHNRGYLHSFPDAKSQPTRGPRVAPNGND
notes: as for B1
binding result (PEM peptide): binds

— patent US20040229289A1, “Antigen binding peptides (abtides) from peptide libraries” (Cytogen Corporation, priority 1994, published 2004)
